Measurements taken from the supplement of paper PMC11451515.

Test system: P12-Ichikawa
Test: cell viability relative to DMSO control; higher = less cytotoxic
Settings: 48 h
Method in brief: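 Viability is a per-plate percentage relative to DMSO wells, with cell-free wells as background. CellTiter-Glo One luminescence was read after 48 h at 37°C on 1536-well plates (5 μl) of NOMO1 or SEM (500 cells/well) or P12-Ichikawa (1000 cells/well) leukemia cells. The cells had been adapted for at least four passages in each medium and pin-dosed with library compounds in DMSO from 47 μM to 0.79 nM in 11 threefold steps.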

[1] = HPLM + 10% dialyzed FBS, 0.000781 µM
[2] = HPLM + 10% dialyzed FBS, 0.00234 µM
[3] = HPLM + 10% dialyzed FBS, 0.00702 µM
[4] = HPLM + 10% dialyzed FBS, 0.0211 µM
[5] = HPLM + 10% dialyzed FBS, 0.0632 µM
[6] = HPLM + 10% dialyzed FBS, 0.19 µM
[7] = HPLM + 10% dialyzed FBS, 0.569 µM
[8] = HPLM + 10% dialyzed FBS, 1.71 µM
[9] = HPLM + 10% dialyzed FBS, 5.12 µM
[10] = HPLM + 10% dialyzed FBS, 15.4 µM
[11] = HPLM + 10% dialyzed FBS, 46.1 µM
[12] = RPMI 5 mM glucose + 10% FBS, 0.000781 µM
[13] = RPMI 5 mM glucose + 10% FBS, 0.00234 µM
[14] = RPMI 5 mM glucose + 10% FBS, 0.00702 µM
[15] = RPMI 5 mM glucose + 10% FBS, 0.0211 µM
[16] = RPMI 5 mM glucose + 10% FBS, 0.0632 µM
[17] = RPMI 5 mM glucose + 10% FBS, 0.19 µM
[18] = RPMI 5 mM glucose + 10% FBS, 0.569 µM
[19] = RPMI 5 mM glucose + 10% FBS, 1.71 µM
[20] = RPMI 5 mM glucose + 10% FBS, 5.12 µM
[21] = RPMI 5 mM glucose + 10% FBS, 15.4 µM
[22] = RPMI 5 mM glucose + 10% FBS, 46.1 µM
[23] = RPMI 5 mM glucose + 10% dialyzed FBS, 0.000781 µM
[24] = RPMI 5 mM glucose + 10% dialyzed FBS, 0.00234 µM
[25] = RPMI 5 mM glucose + 10% dialyzed FBS, 0.00702 µM
[26] = RPMI 5 mM glucose + 10% dialyzed FBS, 0.0211 µM
[27] = RPMI 5 mM glucose + 10% dialyzed FBS, 0.0632 µM
[28] = RPMI 5 mM glucose + 10% dialyzed FBS, 0.19 µM
[29] = RPMI 5 mM glucose + 10% dialyzed FBS, 0.569 µM
[30] = RPMI 5 mM glucose + 10% dialyzed FBS, 1.71 µM
[31] = RPMI 5 mM glucose + 10% dialyzed FBS, 5.12 µM
[32] = RPMI 5 mM glucose + 10% dialyzed FBS, 15.4 µM
[33] = RPMI 5 mM glucose + 10% dialyzed FBS, 46.1 µM

SMILES	cell viability [1]	cell viability [2]	cell viability [3]	cell viability [4]	cell viability [5]	cell viability [6]	cell viability [7]	cell viability [8]	cell viability [9]	cell viability [10]	cell viability [11]	cell viability [12]	cell viability [13]	cell viability [14]	cell viability [15]	cell viability [16]	cell viability [17]	cell viability [18]	cell viability [19]	cell viability [20]	cell viability [21]	cell viability [22]	cell viability [23]	cell viability [24]	cell viability [25]	cell viability [26]	cell viability [27]	cell viability [28]	cell viability [29]	cell viability [30]	cell viability [31]	cell viability [32]	cell viability [33]
N#Cc1cc(NC(=O)Nc2nnc(-c3ccncc3)s2)ccc1-c1cn[nH]c1	117%	125%	122%	125%	120%	116%	122%	115%	113%	106%	110%	120%	127%	125%	126%	110%	116%	119%	113%	119%	112%	109%	121%	126%	117%	124%	126%	126%	128%	124%	115%	112%	105%
CC[C@H]1OC(=O)[C@H](C)[C@@H](O[C@H]2C[C@@](C)(OC)[C@@H](O)[C@H](C)O2)[C@H](C)[C@@H](O[C@@H]2O[C@H](C)C[C@H](N(C)C)[C@H]2O)[C@](C)(O)C[C@@H](C)/C(=N\OCOCCOC)[C@H](C)[C@@H](O)[C@]1(C)O	92.4%	96.1%	93.5%	90.4%	102%	87.8%	87.3%	82.9%	86.4%	76.9%	77.3%	81.3%	85%	84.9%	88.3%	94.3%	76.8%	72.4%	73.1%	82.3%	82.4%	79.6%	89.2%	90.1%	90.2%	91.6%	112%	72%	61.3%	85.2%	81.9%	71.5%	94.3%
COc1cccc(N(C)C(=S)Oc2ccc3c(c2)CCCC3)n1	97.6%	97.3%	103%	106%	111%	108%	112%	107%	97.6%	107%	101%	96.6%	103%	99.1%	103%	104%	92.2%	107%	104%	96.9%	95.6%	88.1%	94.9%	86.6%	104%	96.9%	99.7%	94.2%	101%	92.1%	96.6%	94.8%	81.1%
